Patent US20030087906A1, “NITROGEN SUBSTITUTED BIARYL PURINE DERIVATIVES AS POTENT ANTIPROLIFERATIVE AGENTS” (priority 2001, published 2003)
pIC50: −log10 of the molar value.

Assays:
[1] = test system: BT-549; assay: NCI 60-cell line growth inhibition assay; type: cell-based; conditions: Homo sapiens; Breast, BT-549
[2] = test system: MCF7; assay: NCI 60-cell line growth inhibition assay; type: cell-based; conditions: Homo sapiens; Breast, MCF7
[3] = test system: MDA-MB-435; assay: NCI 60-cell line growth inhibition assay; type: cell-based; conditions: Homo sapiens; Breast, MDA-MB-435
[4] = test system: NCI/ADR-RES; assay: NCI 60-cell line growth inhibition assay; type: cell-based; conditions: Homo sapiens; Breast, NCI/ADR-RES
[5] = test system: T-47D; assay: NCI 60-cell line growth inhibition assay; type: cell-based; conditions: Homo sapiens, T47D; Breast, T-47D
[6] = test system: SF-268; assay: NCI 60-cell line growth inhibition assay; type: cell-based; conditions: Homo sapiens; CNS, SF-268
[7] = test system: SF-295; assay: NCI 60-cell line growth inhibition assay; type: cell-based; conditions: Homo sapiens; CNS, SF-295
[8] = test system: SF-539; assay: NCI 60-cell line growth inhibition assay; type: cell-based; conditions: Homo sapiens; CNS, SF-539
[9] = test system: SNB-19; assay: NCI 60-cell line growth inhibition assay; type: cell-based; conditions: Homo sapiens; CNS, SNB-19
[10] = test system: U251; assay: NCI 60-cell line growth inhibition assay; type: cell-based; conditions: Homo sapiens, U-251; CNS, U251
[11] = test system: COLO 205; assay: NCI 60-cell line growth inhibition assay; type: cell-based; conditions: Homo sapiens; Colon, COLO 205
[12] = test system: HCC-2998; assay: NCI 60-cell line growth inhibition assay; type: cell-based; conditions: Homo sapiens; Colon, HCC-2998
[13] = test system: HCT-116; assay: NCI 60-cell line growth inhibition assay; type: cell-based; conditions: Homo sapiens; Colon, HCT-116
[14] = test system: HCT-15; assay: NCI 60-cell line growth inhibition assay; type: cell-based; conditions: Homo sapiens; Colon, HCT-15
[15] = test system: HT29; assay: NCI 60-cell line growth inhibition assay; type: cell-based; conditions: Homo sapiens, HT-29; Colon, HT29
[16] = test system: KM12; assay: NCI 60-cell line growth inhibition assay; type: cell-based; conditions: Homo sapiens; Colon, KM12
[17] = test system: SW-620; assay: NCI 60-cell line growth inhibition assay; type: cell-based; conditions: Homo sapiens; Colon, SW-620
[18] = test system: CCRF-CEM; assay: NCI 60-cell line growth inhibition assay; type: cell-based; conditions: Homo sapiens; Leukemia, CCRF-CEM
[19] = test system: HL-60(TB); assay: NCI 60-cell line growth inhibition assay; type: cell-based; conditions: Homo sapiens; Leukemia, HL-60(TB)
[20] = test system: K-562; assay: NCI 60-cell line growth inhibition assay; type: cell-based; conditions: Homo sapiens, K562; Leukemia, K-562
[21] = test system: MOLT-4; assay: NCI 60-cell line growth inhibition assay; type: cell-based; conditions: Homo sapiens; Leukemia, MOLT-4
[22] = test system: RPMI-8226; assay: NCI 60-cell line growth inhibition assay; type: cell-based; conditions: Homo sapiens; Leukemia, RPMI-8226
[23] = test system: SR; assay: NCI 60-cell line growth inhibition assay; type: cell-based; conditions: Homo sapiens; Leukemia, SR
[24] = test system: LOX IMVI; assay: NCI 60-cell line growth inhibition assay; type: cell-based; conditions: Homo sapiens; Melanoma, LOX IMVI
[25] = test system: M14; assay: NCI 60-cell line growth inhibition assay; type: cell-based; conditions: Homo sapiens; Melanoma, M14
[26] = test system: MALME-3M; assay: NCI 60-cell line growth inhibition assay; type: cell-based; conditions: Homo sapiens; Melanoma, MALME-3M
[27] = test system: SK-MEL-2; assay: NCI 60-cell line growth inhibition assay; type: cell-based; conditions: Homo sapiens; Melanoma, SK-MEL-2
[28] = test system: SK-MEL-28; assay: NCI 60-cell line growth inhibition assay; type: cell-based; conditions: Homo sapiens; Melanoma, SK-MEL-28
[29] = test system: SK-MEL-5; assay: NCI 60-cell line growth inhibition assay; type: cell-based; conditions: Homo sapiens; Melanoma, SK-MEL-5
[30] = test system: UACC-257; assay: NCI 60-cell line growth inhibition assay; type: cell-based; conditions: Homo sapiens; Melanoma, UACC-257
[31] = test system: UACC-62; assay: NCI 60-cell line growth inhibition assay; type: cell-based; conditions: Homo sapiens; Melanoma, UACC-62
[32] = test system: A549/ATCC; assay: NCI 60-cell line growth inhibition assay; type: cell-based; conditions: Homo sapiens; Non-Small Cell Lung, A549/ATCC
[33] = test system: EKVX; assay: NCI 60-cell line growth inhibition assay; type: cell-based; conditions: Homo sapiens; Non-Small Cell Lung, EKVX
[34] = test system: HOP-62; assay: NCI 60-cell line growth inhibition assay; type: cell-based; conditions: Homo sapiens; Non-Small Cell Lung, HOP-62
[35] = test system: NCI-H23; assay: NCI 60-cell line growth inhibition assay; type: cell-based; conditions: Homo sapiens; Non-Small Cell Lung, NCI-H23
[36] = test system: NCI-H322M; assay: NCI 60-cell line growth inhibition assay; type: cell-based; conditions: Homo sapiens; Non-Small Cell Lung, NCI-H322M
[37] = test system: NCI-H460; assay: NCI 60-cell line growth inhibition assay; type: cell-based; conditions: Homo sapiens; Non-Small Cell Lung, NCI-H460
[38] = test system: NCI-H522; assay: NCI 60-cell line growth inhibition assay; type: cell-based; conditions: Homo sapiens; Non-Small Cell Lung, NCI-H522
[39] = test system: IGROV1; assay: NCI 60-cell line growth inhibition assay; type: cell-based; conditions: Homo sapiens, IGROV-1; Ovarian, IGROV1
[40] = test system: OVCAR-3; assay: NCI 60-cell line growth inhibition assay; type: cell-based; conditions: Homo sapiens; Ovarian, OVCAR-3
[41] = test system: OVCAR-4; assay: NCI 60-cell line growth inhibition assay; type: cell-based; conditions: Homo sapiens; Ovarian, OVCAR-4
[42] = test system: OVCAR-5; assay: NCI 60-cell line growth inhibition assay; type: cell-based; conditions: Homo sapiens; Ovarian, OVCAR-5
[43] = test system: OVCAR-8; assay: NCI 60-cell line growth inhibition assay; type: cell-based; conditions: Homo sapiens; Ovarian, OVCAR-8
[44] = test system: SK-OV-3; assay: NCI 60-cell line growth inhibition assay; type: cell-based; conditions: Homo sapiens; Ovarian, SK-OV-3
[45] = test system: DU-145; assay: NCI 60-cell line growth inhibition assay; type: cell-based; conditions: Homo sapiens; Prostate, DU-145
[46] = test system: PC-3; assay: NCI 60-cell line growth inhibition assay; type: cell-based; conditions: Homo sapiens; Prostate, PC-3
[47] = test system: 786-0; assay: NCI 60-cell line growth inhibition assay; type: cell-based; conditions: Homo sapiens; Renal, 786-0
[48] = test system: ACHN; assay: NCI 60-cell line growth inhibition assay; type: cell-based; conditions: Homo sapiens; Renal, ACHN
[49] = test system: CAKI-1; assay: NCI 60-cell line growth inhibition assay; type: cell-based; conditions: Homo sapiens; Renal, CAKI-1
[50] = test system: TK-10; assay: NCI 60-cell line growth inhibition assay; type: cell-based; conditions: Homo sapiens; Renal, TK-10
[51] = test system: UO-31; assay: NCI 60-cell line growth inhibition assay; type: cell-based; conditions: Homo sapiens; Renal, UO-31
[52] = test system: Tumor Cells in Hollow Fibers; assay: NCI Hollow Fiber Assay (in vivo evaluation)
[53] = MTD (NCI in vivo evaluation, Table 8); conditions: mouse
[54] = target: CyclinA/cdk2 (Homo sapiens, UniProt P24941); assay: CyclinA/cdk2 protein kinase assay (histone H1 phosphorylation); conditions: IC50 CyclinA/cdk2, complex immunopurified from HeLa cells; 15 μM ATP; replicate experiments
[55] = target: CyclinE/cdk2 (Homo sapiens, UniProt P24941); assay: CyclinE/cdk2 protein kinase assay (histone H1 phosphorylation); conditions: IC50 CyclinE/cdk2, complex immunopurified from HeLa cells; 15 μM ATP; replicate experiments

`C=Cc1ccc(-c2ccc(CNc3nc(N[C@H](CC)CO)nc4c3ncn4C(C)C)cc2)cc1` [Compound 33] showed a GI50 [1] of 51.3 µM, a GI50 [2] of 5.2 µM and a GI50 [3] of 4.9 µM. It also gave a GI50 [4] of 6.3 µM, a GI50 [5] of 3.9 µM and a GI50 [6] of 6.3 µM. The GI50 [7] was 7.8 µM, the GI50 [8] was 89.1 µM and the GI50 [9] was 38 µM. For the same compound, the GI50 [10] was 3.7 µM, the GI50 [11] was 7.8 µM and the GI50 [12] was greater than 1000 µM. It also gave a GI50 [13] of 6.2 µM, a GI50 [14] of 8.9 µM and a GI50 [15] of 8.9 µM. The GI50 [16] was 4.1 µM, the GI50 [17] was 2.9 µM and the GI50 [18] was 4.6 µM. For the same compound, the GI50 [19] was 3.2 µM, the GI50 [20] was 3.1 µM and the GI50 [21] was 3.8 µM. For the same compound, the GI50 [22] was 1.5 µM, the GI50 [23] was 4.5 µM and the GI50 [24] was 16.6 µM. For the same compound, the GI50 [25] was 7.8 µM, the GI50 [26] was 11.7 µM and the GI50 [27] was greater than 1000 µM. For the same compound, the GI50 [28] was 5.9 µM, the GI50 [29] was 16.2 µM and the GI50 [30] was 75.9 µM. For the same compound, the GI50 [31] was 8.3 µM, the GI50 [32] was 4.6 µM and the GI50 [33] was 6.9 µM. The GI50 [34] was greater than 1000 µM, the GI50 [35] was 26.3 µM and the GI50 [36] was 38.9 µM. For the same compound, the GI50 [37] was 25.7 µM, the GI50 [38] was 4.2 µM and the GI50 [39] was 10 µM. It also gave a GI50 [40] greater than 1000 µM, a GI50 [41] of 31.6 µM and a GI50 [42] greater than 1000 µM. The GI50 [43] was 6.6 µM, the GI50 [44] was greater than 1000 µM and the GI50 [45] was 17.8 µM. It also gave a GI50 [46] greater than 1000 µM, a GI50 [47] of 18.6 µM and a GI50 [48] of 5.2 µM. It also gave a GI50 [49] of 4.4 µM, a GI50 [50] of 8.3 µM and a GI50 [51] of 8.1 µM.
With `CC(=O)N[C@H]1CC[C@H](Nc2nc(NCc3ccc(-c4ccsc4)cc3)c3ncn(C(C)C)c3n2)CC1` [Compound 113] the “Cell Types Killed” value [52] was “OVCAR-3”, the “IP Score” value ([52]; IP fibers) was 18 and the SC score ([52]; SC fibers) was 4. For the same compound, the MTD [53] was 200 mg/kg, the pIC50 [54] was 6.40 and the pIC50 [55] was 6.52.
